# Measured values taken from publication PMC8050276, “Estradiol analogs attenuate autophagy, cell migration and invasion by direct and selective inhibition of TRPML1, independent of estrogen receptors” (Scientific Reports, 2021).
# Tests used:
# hTPC2L11A/L12A-RFP = target: T1, hTPC2L11A/L12A-RFP (Homo sapiens, UniProt Q8NHX9, L11A/L12A); assay: Fluo-4 Ca2+ assay, HEK293 stably expressing hTPC2L11A/L12A-RFP, activated with TPC2-A1-N or TPC2-A1-P; assay type: cell-based; conditions: activated by either TPC2-A1-P or TPC2-A1-N
# T1 construct: expressed in transfected cells
# T1 sequence (Q8NHX9 whole entry L11A/L12A): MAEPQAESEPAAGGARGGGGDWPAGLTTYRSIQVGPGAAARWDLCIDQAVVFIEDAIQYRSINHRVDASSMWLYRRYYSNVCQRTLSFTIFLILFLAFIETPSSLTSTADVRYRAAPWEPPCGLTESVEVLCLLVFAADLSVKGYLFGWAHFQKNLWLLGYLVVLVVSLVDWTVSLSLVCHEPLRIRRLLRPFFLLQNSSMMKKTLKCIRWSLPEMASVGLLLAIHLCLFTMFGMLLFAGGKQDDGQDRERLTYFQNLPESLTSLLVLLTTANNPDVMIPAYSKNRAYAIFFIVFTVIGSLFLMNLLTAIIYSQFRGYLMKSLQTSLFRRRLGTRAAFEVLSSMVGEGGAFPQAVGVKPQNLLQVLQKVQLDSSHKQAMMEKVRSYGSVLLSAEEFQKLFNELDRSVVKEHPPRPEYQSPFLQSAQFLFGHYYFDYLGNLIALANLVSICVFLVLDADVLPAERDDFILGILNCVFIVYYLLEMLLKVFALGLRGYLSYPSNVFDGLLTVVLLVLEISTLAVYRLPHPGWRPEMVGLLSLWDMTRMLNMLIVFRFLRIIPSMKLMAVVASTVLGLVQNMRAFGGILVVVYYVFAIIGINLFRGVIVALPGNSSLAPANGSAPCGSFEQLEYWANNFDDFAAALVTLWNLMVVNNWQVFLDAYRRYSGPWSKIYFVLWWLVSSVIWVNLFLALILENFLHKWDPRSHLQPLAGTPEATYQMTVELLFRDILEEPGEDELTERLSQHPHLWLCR
# [1] = tested on: TRPC3, 4, 5, 6, and 7; TRPM2, 3, and 8; TRPV1, 2, 3, and 4; assay: Fluo-4 counter screen against other TRP channels stably expressed in HEK293; assay type: cell-based; conditions: most channels; activated with known ligands
# hTRPML3 = target: T2, hTRPML3 (Homo sapiens, UniProt Q8TDD5); assay: Whole-cell patch-clamp, tetracycline-inducible HEK293 hTRPML3; assay type: cell-based; conditions: 30 µM ML-SA1, pH 7.4
# T2 construct: host or cells: HEK293, FLP-in-Tet-On, tetracycline-induced
# T2 sequence (Q8TDD5 1-553): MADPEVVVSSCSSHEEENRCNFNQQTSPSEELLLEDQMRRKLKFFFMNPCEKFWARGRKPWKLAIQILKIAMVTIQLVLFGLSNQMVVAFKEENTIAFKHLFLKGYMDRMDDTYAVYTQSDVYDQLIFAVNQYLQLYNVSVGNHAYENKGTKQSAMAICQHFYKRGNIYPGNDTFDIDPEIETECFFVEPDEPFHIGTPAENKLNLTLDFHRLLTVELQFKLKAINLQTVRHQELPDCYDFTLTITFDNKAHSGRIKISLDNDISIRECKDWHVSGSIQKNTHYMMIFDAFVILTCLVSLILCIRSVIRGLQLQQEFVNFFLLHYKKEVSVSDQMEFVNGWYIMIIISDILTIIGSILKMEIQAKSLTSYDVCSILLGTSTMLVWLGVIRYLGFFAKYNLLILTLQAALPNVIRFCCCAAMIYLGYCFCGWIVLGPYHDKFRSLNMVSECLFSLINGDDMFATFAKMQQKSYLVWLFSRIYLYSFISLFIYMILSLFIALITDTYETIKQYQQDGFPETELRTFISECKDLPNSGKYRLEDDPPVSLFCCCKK
# Procedure: For whole-cell patch-clamp experiments tetracycline-inducible hTRPML1L15/16A, L577/578A, hTRPML2 and TRPML3 HEK293 cell lines were used, generated by ICAGEN Inc. using the FLP-in-Tet-On system. Experiments were performed as described previously[20],[42]. In brief, cells were cultured on coverslips (Fisherbrand, Fisher Scientific) in complete DMEM medium with 10% FBS (Thermo Fisher). HEK293 cells expressing the desired channel protein were patch-clamped after overnight induction with tetracycline (1 µg/mL). […] The pipette solution contained (mM) 122 Cs‐methanosulfonate, 4 NaCl, 10 EGTA, 2 Na-ATP, 2 MgCl2 and 20 HEPES, pH 7.2 (with CsOH). The standard bath solution contained (mM) 153 NaCl, 5 KCl, 2 CaCl2, 1 MgCl2, 20 HEPES and 10 Glucose (pH 7.4 with NaOH). The low pH bath solution contained (mM) 150 Na-Gluconate, 5 KCl, 2 CaCl2, 1 MgCl2, 10 glucose, 10 HEPES and 10 MES (pH 4.6). Whole‐cell currents were recorded using a Multiclamp 700B amplifier (Molecular Devices) with low‐pass filtering at 3 kHz. The currents were digitized at a sampling frequency of 10 kHz using BNC-2110 and PCI-6221 with NI-DAQmx (National Instruments) and stored directly to a hard drive. Current recording was done with WinWCP5.2.7 (University of Strathclyde, UK) software, and analysis was done with the help of a customized Igor pro program (WaveMetrics).
# hTRPML1 WT = target: T3, hTRPML1 WT (Homo sapiens, UniProt Q9GZU1); assay: Endolysosomal patch-clamp, vacuolin-enlarged endo-lysosomes from hTRPML1 WT expressing HEK293 cells; assay type: cell-based; conditions: activation with ML-SA1 (10 µM) or PI(3,5)P2 (1 µM), luminal pH 4.6
# T3 construct: expressed in transfected cells; host or cells: HEK293
# T3 sequence (Q9GZU1 whole entry): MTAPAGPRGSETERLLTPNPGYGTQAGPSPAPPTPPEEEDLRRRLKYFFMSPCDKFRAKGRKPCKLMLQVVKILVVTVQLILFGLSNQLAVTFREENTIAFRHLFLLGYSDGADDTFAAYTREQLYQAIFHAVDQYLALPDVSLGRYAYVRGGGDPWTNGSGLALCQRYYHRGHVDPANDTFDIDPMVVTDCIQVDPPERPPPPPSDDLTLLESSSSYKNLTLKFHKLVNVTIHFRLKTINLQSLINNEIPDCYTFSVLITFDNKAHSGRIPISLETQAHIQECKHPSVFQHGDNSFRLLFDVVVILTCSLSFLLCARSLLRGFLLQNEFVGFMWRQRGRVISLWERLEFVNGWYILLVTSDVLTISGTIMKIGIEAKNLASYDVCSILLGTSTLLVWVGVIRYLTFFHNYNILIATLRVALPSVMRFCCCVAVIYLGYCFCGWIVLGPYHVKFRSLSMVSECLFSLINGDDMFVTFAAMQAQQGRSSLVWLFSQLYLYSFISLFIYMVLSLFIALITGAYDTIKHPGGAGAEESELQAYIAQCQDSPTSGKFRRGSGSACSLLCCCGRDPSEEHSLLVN
# Procedure: For whole-LE/LY manual patch-clamp recordings, cells were treated with 1 μM vacuolin-1 (> 2 h) at 37 °C and 5% CO2 and experiments performed as described previously[19],[25]. Compound was washed out before patch-clamp experimentation. Currents were recorded using an EPC-10 patch-clamp amplifier (HEKA, Lambrecht, Germany) and PatchMaster acquisition software (https://www.heka.com/). Data were digitized at 40 kHz and filtered at 2.8 kHz. Fast and slow capacitive transients were cancelled by the compensation circuit of the EPC-10 amplifier. All recordings were obtained at room temperature and were analyzed using PatchMaster acquisition software (https://www.heka.com/) and OriginPro 6.1 (https://www.originlab.com/). […] For all experiments, salt-agar bridges were used to connect the reference Ag–AgCl wire to the bath solution to minimize voltage offsets. Liquid junction potential was corrected. For the application of the small molecule inhibitors/flavonoids, cytoplasmic solution was completely exchanged by cytoplasmic solution containing compound. The current amplitudes at − 100 mV were extracted from individual ramp current recordings. Unless otherwise stated, cytoplasmic solution contained 140 mM K-MSA, 5 mM KOH, 4 mM NaCl, 0.39 mM CaCl2, 1 mM EGTA and 10 mM HEPES (pH was adjusted with KOH to 7.2). […]
# TFEB = TFEB shift / nuclear translocation upon nutrient starvation; assay type: cell-based, human; conditions: EDME 1 µM, Hbss
# Procedure: 5 × 10^4 wild-type human fibroblasts were seeded in a 12-well plate and treated overnight with DMSO or different TRPML1 inhibitors (EDME, PRU-10, PRU-12). The day after, cells were treated for 3 h in full media (Fed) or HBSS supplemented with 10 mM HEPES (nutrient starved) in presence of DMSO or different TRPML1 inhibitors (EDME, PRU-10, PRU-12). For autophagic flux experiments, cells were co-treated with 100 nM of bafilomycin A1 (Sigma).
# Total cell lysates were prepared using TRIS HCl 10 mM pH 8.0 and 0.2% SDS supplemented with protein and phosphatase inhibitors (Sigma). Protein concentration was determined using the Bradford method. After SDS–polyacrylamide gel electrophoresis (PAGE) and immunoblotting, the protein recognized by the specific antibody was visualized by chemiluminescence methods (Luminata Crescendo Western HRP substrate, Millipore) using HRP-conjugated anti-rabbit or anti-mouse secondary antibodies (Cell Signalling). Images were acquired using Li-Cor Odyssey Fc Imaging System and densitometric quantification of unsaturated images was performed using ImageJ software (NIH). Uncropped and unprocessed western blot scans are provided as Fig. S1. The following primary antibodies were used: LC3 (Novus Cat. No. NB100-2220, 1:1000 in 5% milk), TFEB (Cell Signaling Cat. No. 4240, 1:1000 in 5% BSA) and β-actin (Santa Cruz Cat. No. Sc-47778, 1: 1000 in 5% BSA).
smiles,measurement,setting,value
"COc1ccc2c(c1)CC[C@@H]1[C@@H]2CC[C@]2(C)[C@@H](O)CC[C@@H]12 [EDME, 17β-estradiol methyl ether]",IC50 at TPC2,hTPC2L11A/L12A-RFP,no meaningful IC50s
same,IC50 at other TRP channels,[1],no meaningful IC50s
same,"block of TRPML3, whole-cell patch-clamp",hTRPML3,no block
same,"inhibition of WT hTRPML1 current, endolysosomal patch-clamp",hTRPML1 WT,inhibitory effect
same,TFEB molecular downshift induced by nutrient starvation,TFEB,reduced
